The term IC50 denotes the concentration that inhibits the measured activity by half.

Molecules are shown by their SMILES. Counter-ions that a name gives are not always drawn. Bounds are passed on as bounds.

The text below walks through data of patent publication US12473295B2, “Substituted straight chain spiro derivatives” (Janssen Pharmaceutica NV, priority 2019, dated 2025).

The test system of one assay is KO-52 cells. Briefly: Proliferation assay (spheroid growth, 8 days), KO-52 control cell line. Format: cell-based, human. As to conditions: Homo sapiens, […], read-out: spheroid assay_OneTime KO-52 IC50. In outline:
(§1)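 Cells were seeded at 200 (MOLM14, OCI-AML3) or 300 (KO-52) per well in ultra-low attachment round-bottom plates with compounds at several concentrations, 0.3% DMSO, and grown 8 days at 37° C. Spheroid confluence was imaged on day 8; IC50 came from a variable-slope fit normalized to DMSO and high-dose reference compound.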

Assay [1] addresses menin/MLL (terbium chelate-labeled menin, FITC-MBM1 peptide) (Homo sapiens (Human), UniProt O00255). Description: Menin/MLL homogenous time-resolved fluorescence (HTRF) assay.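 Further: IC50 from percent inhibition of HTRF signal, normalized between wells without competitor and wells with a saturating competitor that displaces FITC-MBM1 from His-tagged menin.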 The assay is classed as binding. The conditions noted are these: HTRF-30 min incubation IC50, 30 min incubation.
A further assay concerns MOLM14 cells. Briefly: Proliferation assay (spheroid growth, 8 days), MOLM14.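 Further: spheroid size read as confluence by live-cell imaging, compounds added at a range of concentrations with 0.3% DMSO, DMSO-treated wells = 0%, highest reference dose = low control.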 The assay is classed as cell-based, human. The conditions noted are these: Homo sapiens, MOLM-14, […], MOLM14, 8 days; read-out: spheroid assay_OneTime MOLM14 IC50.
The test system of a further assay is MEIS1 mRNA. Description: MEIS1 mRNA expression assay (Quantigene Singleplex) in MOLM14 cells.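 Further: MEIS1 transcript levels read by probe hybridization and normalized to RPL28 mRNA, with IC50 fitted to fold changes across a rising compound concentration series.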 The assay is classed as cell-based, human. The conditions noted are these: Homo sapiens, MOLM-14, 48 h, 48 hours incubation.
A further assay concerns OCI-AML3 cells. Briefly: Proliferation assay (spheroid growth, 8 days), OCI-AML3. The assay is classed as cell-based, human. As to conditions: Homo sapiens, OCI-AML-3, […], OCI-AML3, 8 days. In outline: as §1

menin/MLL (terbium chelate-labeled menin, FITC-MBM1 peptide), sequence (O00255 other isoform, or with tags, fused parts or gaps): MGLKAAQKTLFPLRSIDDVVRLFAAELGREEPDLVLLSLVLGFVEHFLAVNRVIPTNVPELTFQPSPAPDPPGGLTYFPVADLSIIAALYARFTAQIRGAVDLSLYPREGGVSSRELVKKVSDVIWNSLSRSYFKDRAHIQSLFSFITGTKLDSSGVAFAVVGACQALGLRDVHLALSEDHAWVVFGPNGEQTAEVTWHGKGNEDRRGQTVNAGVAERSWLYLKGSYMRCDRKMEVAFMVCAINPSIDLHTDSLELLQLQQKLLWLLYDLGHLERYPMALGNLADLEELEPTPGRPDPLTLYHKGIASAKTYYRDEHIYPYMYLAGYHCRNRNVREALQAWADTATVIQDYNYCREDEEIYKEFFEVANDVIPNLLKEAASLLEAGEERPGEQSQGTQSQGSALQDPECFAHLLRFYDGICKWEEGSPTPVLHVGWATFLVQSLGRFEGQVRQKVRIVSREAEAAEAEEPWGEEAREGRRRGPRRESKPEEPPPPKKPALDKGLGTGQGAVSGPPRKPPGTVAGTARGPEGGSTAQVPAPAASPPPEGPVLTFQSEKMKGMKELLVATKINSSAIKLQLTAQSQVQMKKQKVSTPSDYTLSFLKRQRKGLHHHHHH

Take `CCN(C(=O)c1cc(F)ccc1Oc1nncnc1N1CCC2(C1)CN([C@H](CCCN(C)C(C)C)C(C)C)C2)C(C)C` (single isomer, unassigned) [Compound 122, (*R)—N-ethyl-5-fluoro-N-isopropyl-2-((5-(2-(6-(isopropyl(methyl)amino)-2-methylhexan-3-yl)-2,6-diazaspiro[3.4]octan-6-yl)-1,2,4-triazin-6-yl)oxy)benzamide fumarate]: the IC50 in the assay on KO-52 cells is more than 15000 nM; in assay [1], 0.065 nM; with MOLM14 cells, 21 nM; with MEIS1 mRNA, 34 nM; with OCI-AML3 cells, 150 nM.
With `CCN(C(=O)c1cc(F)ccc1Oc1nncnc1N1CCC2(C1)CN([C@H](CCN)C(C)C)C2)C(C)C` (single isomer, unassigned) [Compound 219, (*R)-2-((5-(2-(1-amino-4-methylpentan-3-yl)-2,6-diazaspiro[3.4]octan-6-yl)-1,2,4-triazin-6-yl)oxy)-N-ethyl-5-fluoro-N-isopropylbenzamide fumarate], the IC50 in the assay with KO-52 cells is more than 15000 nM; in assay [1], 0.27 nM; with MOLM14 cells it was 130 nM; in the assay with MEIS1 mRNA it was approximately 230 nM; in the assay with OCI-AML3 cells, 430 nM.
As to `CCN(C(=O)c1cc(F)ccc1Oc1nncnc1N1CCC2(C1)CN([C@H](CCNCCCO)C(C)C)C2)C(C)C` (single isomer, unassigned) [Compound 273, (*R)—N-ethyl-5-fluoro-2-((5-(2-(1-((3-hydroxypropyl)amino)-4-methylpentan-3-yl)-2,6-diazaspiro[3.4]octan-6-yl)-1,2,4-triazin-6-yl)oxy)-N-isopropylbenzamide], the concentration for half-maximal inhibition (IC50) in the assay with KO-52 cells was more than 15000 nM; in assay [1], 0.21 nM; in the assay with MOLM14 cells, 390 nM; in the assay on MEIS1 mRNA it was approximately 390 nM; in the assay on OCI-AML3 cells, 830 nM.
For `CCN(C(=O)c1cc(F)ccc1Oc1nncnc1N1CCC2(C1)CN([C@H](CCCN(C)CCCOC)C(C)C)C2)C(C)C` [Compound 142, (R)-N-ethyl-5-fluoro-N-isopropyl-2-((5-(2-(6-((3-methoxypropyl)(methyl)amino)-2-methylhexan-3-yl)-2,6-diazaspiro[3.4]octan-6-yl)-1,2,4-triazin-6-yl)oxy)benzamide fumarate] the same measures were more than 15000 nM, 0.071 nM, 12 nM, 51 nM and 220 nM.
Regarding `CCN(C(=O)c1cc(F)ccc1Oc1nncnc1N1CCC2(C1)CN(C(CCN)C(C)C)C2)C(C)C` (stereo not drawn) [Compound 26, 2-((5-(2-(1-amino-4-methylpentan-3-yl)-2,6-diazaspiro[3.4]octan-6-yl)-1,2,4-triazin-6-yl)oxy)-N-ethyl-5-fluoro-N-isopropylbenzamide], the IC50 was more than 15000 nM in the assay on KO-52 cells; 0.28 nM in assay [1]; 270 nM with MOLM14 cells; 490 nM with MEIS1 mRNA; 1340 nM in the assay on OCI-AML3 cells.
For the compound `CCN(C(=O)c1cc(F)ccc1Oc1nncnc1N1CCC2(C1)CN([C@H](CCN(C)CCO)C(C)C)C2)C(C)C` (single isomer, unassigned) [Compound 270, (*R)—N-ethyl-5-fluoro-2-((5-(2-(1-((2-hydroxyethyl)(methyl)amino)-4-methylpentan-3-yl)-2,6-diazaspiro[3.4]octan-6-yl)-1,2,4-triazin-6-yl)oxy)-N-isopropylbenzamide fumarate], the IC50 in the assay on KO-52 cells is more than 15000 nM; in assay [1], 0.54 nM; with MOLM14 cells, 140 nM; with MEIS1 mRNA it was 220 nM; with OCI-AML3 cells, 480 nM.
